# In paper PMC8706783 (Pharmaceutics, 2021):
# Columns and labels:
# [1] = target: CYP2C19 (Homo sapiens, UniProt P33261); experiment: Enzyme inhibition assay, CYP2C19; details: HLM; CYP2C19 S-mephenytoin 4′-hydroxylation
# [2] = target: T1, UGT1A8 (Homo sapiens, UniProt Q9HAW9); experiment: Enzyme inhibition assay, UGT1A8
# T1 sequence (Q9HAW9 26-530): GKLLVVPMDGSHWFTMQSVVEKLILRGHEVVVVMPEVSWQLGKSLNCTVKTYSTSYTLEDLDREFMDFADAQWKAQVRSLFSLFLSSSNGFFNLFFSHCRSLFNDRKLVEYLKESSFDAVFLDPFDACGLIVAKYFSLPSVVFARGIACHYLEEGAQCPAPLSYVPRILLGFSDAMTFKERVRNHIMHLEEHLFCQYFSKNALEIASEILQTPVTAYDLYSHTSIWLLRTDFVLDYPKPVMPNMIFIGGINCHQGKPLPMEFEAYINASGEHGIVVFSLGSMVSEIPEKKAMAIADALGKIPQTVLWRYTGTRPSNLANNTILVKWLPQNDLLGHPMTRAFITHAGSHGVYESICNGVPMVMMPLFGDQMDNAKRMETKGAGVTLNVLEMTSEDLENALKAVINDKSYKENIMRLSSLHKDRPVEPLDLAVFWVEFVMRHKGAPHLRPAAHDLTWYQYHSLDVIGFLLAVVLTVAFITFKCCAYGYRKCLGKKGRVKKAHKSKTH
# [3] = target: T2, UGT1A7 (Homo sapiens, UniProt Q9HAW7); experiment: Enzyme inhibition assay, UGT1A7
# T2 sequence (Q9HAW7 26-530): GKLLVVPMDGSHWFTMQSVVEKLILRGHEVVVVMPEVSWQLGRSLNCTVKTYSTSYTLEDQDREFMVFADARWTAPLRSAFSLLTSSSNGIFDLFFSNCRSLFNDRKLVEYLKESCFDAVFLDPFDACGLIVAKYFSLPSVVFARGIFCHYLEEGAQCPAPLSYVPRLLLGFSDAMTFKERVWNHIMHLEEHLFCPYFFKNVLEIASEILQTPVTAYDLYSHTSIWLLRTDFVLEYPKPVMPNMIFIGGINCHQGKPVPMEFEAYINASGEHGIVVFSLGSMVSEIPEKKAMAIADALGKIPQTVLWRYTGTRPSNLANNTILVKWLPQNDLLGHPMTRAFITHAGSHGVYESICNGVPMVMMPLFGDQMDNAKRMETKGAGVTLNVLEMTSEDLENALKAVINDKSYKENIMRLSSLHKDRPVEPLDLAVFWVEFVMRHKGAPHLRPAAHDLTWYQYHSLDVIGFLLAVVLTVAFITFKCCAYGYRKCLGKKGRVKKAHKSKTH
# [4] = target: T3, UGT1A1 (Homo sapiens, UniProt P22309); experiment: Enzyme inhibition assay, UGT1A1; assay type: in vitro ADME; details: HLM; UGT1A1 SN38 glucuronidation; read-out: IC50
# T3 construct: from tissue
# T3 sequence (P22309 26-533): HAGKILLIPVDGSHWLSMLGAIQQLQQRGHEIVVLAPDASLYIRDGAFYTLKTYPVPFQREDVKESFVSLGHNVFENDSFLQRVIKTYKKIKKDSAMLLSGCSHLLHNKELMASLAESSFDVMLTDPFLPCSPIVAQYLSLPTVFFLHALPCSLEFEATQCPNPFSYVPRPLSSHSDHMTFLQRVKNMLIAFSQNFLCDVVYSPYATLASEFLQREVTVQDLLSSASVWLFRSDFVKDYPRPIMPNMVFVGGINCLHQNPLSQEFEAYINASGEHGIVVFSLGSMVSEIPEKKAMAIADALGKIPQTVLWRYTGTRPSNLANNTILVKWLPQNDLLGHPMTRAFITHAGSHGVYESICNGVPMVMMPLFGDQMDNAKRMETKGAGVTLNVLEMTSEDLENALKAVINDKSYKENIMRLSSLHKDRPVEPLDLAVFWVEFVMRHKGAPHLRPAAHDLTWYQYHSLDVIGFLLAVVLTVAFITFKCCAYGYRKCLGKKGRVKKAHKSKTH
# [5] = target: T4, UGT1A3 (Homo sapiens, UniProt P35503); experiment: Reaction phenotyping, rUGT1A3; details: recombinant UGT1A3, pH 7.4
# T4 sequence (P35503 29-534): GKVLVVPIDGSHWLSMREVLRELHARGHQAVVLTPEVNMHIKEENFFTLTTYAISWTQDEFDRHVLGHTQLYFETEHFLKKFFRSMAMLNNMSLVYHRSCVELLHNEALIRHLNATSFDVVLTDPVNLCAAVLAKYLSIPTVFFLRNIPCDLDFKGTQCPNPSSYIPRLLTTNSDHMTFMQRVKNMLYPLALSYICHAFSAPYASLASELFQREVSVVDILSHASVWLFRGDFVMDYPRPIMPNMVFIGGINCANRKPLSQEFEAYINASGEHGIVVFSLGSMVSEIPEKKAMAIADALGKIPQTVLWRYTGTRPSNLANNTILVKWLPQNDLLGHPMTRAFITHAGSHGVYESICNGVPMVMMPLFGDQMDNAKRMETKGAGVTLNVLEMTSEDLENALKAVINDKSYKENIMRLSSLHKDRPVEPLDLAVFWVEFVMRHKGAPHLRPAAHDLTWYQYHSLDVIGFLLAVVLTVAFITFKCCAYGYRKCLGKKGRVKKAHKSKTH
# [6] = target: T5, UGT2B7 (Homo sapiens, UniProt P16662); experiment: Enzyme inhibition assay, UGT2B7; assay type: in vitro ADME; design: from tissue; details: HLM; UGT2B7 zidovudine glucuronidation
# T5 sequence (P16662 24-529): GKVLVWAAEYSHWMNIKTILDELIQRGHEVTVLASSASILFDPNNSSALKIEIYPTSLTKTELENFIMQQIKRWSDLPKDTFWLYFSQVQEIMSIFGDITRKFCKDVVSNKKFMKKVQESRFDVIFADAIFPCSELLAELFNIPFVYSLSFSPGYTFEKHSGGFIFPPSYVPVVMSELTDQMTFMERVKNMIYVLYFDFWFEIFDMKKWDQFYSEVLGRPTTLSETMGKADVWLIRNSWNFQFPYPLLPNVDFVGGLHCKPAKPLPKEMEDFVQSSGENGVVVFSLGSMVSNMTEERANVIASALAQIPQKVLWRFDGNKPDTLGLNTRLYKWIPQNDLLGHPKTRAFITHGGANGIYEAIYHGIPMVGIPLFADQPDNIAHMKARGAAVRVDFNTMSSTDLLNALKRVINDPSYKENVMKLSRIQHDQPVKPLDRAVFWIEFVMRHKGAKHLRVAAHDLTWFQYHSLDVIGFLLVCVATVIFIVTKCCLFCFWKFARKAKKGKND
# [7] = target: T6, CYP1A1 (Homo sapiens, UniProt P04798); experiment: Enzyme inhibition assay, CYP1A1; assay type: in vitro ADME; design: purchased Xenotech LLC; details: Recombinant CYP1A1; phenacetin-O-deethylation
# T6 sequence (P04798 1-512): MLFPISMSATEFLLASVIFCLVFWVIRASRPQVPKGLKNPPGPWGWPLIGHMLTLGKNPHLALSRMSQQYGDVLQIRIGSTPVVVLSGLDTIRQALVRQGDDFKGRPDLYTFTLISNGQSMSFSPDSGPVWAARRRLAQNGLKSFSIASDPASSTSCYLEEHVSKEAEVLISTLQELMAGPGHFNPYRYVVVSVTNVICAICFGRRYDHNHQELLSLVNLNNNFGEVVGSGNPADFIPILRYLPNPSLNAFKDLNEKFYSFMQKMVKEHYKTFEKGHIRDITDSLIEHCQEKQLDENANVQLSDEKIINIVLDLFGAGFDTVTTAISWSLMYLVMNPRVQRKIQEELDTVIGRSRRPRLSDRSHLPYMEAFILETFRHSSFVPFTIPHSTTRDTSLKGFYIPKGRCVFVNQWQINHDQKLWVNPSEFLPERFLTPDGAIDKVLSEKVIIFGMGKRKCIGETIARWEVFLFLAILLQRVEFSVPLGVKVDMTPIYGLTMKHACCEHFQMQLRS
# [8] = target: T7, UGT1A4 (Homo sapiens, UniProt P22310); experiment: Enzyme inhibition assay, UGT1A4
# T7 sequence (P22310 29-534): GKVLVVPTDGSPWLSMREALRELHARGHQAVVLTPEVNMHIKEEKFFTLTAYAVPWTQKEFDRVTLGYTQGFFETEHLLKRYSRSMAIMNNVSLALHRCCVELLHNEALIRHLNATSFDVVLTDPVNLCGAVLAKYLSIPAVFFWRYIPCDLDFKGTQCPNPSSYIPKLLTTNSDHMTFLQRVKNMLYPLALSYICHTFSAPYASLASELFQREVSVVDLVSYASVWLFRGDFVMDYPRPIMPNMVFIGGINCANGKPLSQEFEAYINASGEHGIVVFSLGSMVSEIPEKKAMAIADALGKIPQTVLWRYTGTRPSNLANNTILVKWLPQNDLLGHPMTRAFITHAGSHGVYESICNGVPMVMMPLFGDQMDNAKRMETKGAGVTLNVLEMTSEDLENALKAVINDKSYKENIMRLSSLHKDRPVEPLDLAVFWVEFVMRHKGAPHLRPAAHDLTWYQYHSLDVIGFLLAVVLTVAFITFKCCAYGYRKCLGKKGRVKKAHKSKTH
# [9] = target: CYP3A4 (Homo sapiens, UniProt P08684); experiment: Reaction phenotyping, rCYP3A4; details: recombinant enzyme, pH 7.4
# CYP3A4, sequence (P08684 whole entry): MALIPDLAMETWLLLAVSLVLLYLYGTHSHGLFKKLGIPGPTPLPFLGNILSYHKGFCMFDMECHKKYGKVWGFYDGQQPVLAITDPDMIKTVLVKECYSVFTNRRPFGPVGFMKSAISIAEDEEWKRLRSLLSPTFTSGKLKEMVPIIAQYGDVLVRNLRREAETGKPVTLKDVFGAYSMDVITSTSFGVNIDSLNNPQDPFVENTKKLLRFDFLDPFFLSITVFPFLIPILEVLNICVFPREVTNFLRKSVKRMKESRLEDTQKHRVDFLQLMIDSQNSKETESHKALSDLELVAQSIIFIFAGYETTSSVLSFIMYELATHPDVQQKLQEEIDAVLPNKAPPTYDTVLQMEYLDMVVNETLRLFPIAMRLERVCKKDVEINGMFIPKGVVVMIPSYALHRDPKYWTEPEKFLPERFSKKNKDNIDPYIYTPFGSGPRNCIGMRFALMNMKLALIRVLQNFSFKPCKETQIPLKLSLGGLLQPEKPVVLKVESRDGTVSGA
# [10] = Reaction phenotyping, HLM with NADPH; assay type: in vitro ADME, human; details: human, human liver microsomes, pH 7.4; HLM (Phase 1), Midazolam (1 µM); read-out: Known Substrate (% Remaining at 60 min)
# [11] = target: T8, UGT1A9 (Homo sapiens, UniProt O60656); experiment: Enzyme inhibition assay, UGT1A9; assay type: in vitro ADME; design: from tissue; details: HLM; UGT1A9 mycophenolic acid glucuronidation
# T8 sequence (O60656 26-530): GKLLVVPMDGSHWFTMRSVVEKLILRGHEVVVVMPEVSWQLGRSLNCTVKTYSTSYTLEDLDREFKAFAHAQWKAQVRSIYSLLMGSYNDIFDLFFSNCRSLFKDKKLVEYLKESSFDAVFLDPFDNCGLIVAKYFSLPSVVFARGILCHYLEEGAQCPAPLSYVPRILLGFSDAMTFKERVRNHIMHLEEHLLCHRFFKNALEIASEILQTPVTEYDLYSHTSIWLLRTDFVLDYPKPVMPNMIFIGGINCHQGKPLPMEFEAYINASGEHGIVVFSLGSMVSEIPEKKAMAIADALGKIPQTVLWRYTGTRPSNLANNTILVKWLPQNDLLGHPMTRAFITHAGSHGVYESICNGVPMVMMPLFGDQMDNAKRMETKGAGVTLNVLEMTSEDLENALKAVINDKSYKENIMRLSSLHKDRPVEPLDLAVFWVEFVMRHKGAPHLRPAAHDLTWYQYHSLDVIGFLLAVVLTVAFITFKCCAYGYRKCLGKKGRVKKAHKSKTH
# [12] = test system: CYP1A2; experiment: Enzyme induction assay, CYP1A2 activity in primary human hepatocytes; assay type: in vitro ADME; details: plated cryopreserved primary human hepatocytes, O-deethylation
# [13] = test system: CYP2B6; experiment: Enzyme induction assay, CYP2B6 activity in primary human hepatocytes; details: CYP2B6 bupropion hydroxylation, DPV 303 nM, phenobarbital 1 mM
# [14] = target: rUGT1A1 (Homo sapiens, UniProt P22309); experiment: Reaction phenotyping, rUGT1A1; details: rUGT1A1, SN38 (0.5 µM)
# CYP2C19, sequence (P33261 whole entry): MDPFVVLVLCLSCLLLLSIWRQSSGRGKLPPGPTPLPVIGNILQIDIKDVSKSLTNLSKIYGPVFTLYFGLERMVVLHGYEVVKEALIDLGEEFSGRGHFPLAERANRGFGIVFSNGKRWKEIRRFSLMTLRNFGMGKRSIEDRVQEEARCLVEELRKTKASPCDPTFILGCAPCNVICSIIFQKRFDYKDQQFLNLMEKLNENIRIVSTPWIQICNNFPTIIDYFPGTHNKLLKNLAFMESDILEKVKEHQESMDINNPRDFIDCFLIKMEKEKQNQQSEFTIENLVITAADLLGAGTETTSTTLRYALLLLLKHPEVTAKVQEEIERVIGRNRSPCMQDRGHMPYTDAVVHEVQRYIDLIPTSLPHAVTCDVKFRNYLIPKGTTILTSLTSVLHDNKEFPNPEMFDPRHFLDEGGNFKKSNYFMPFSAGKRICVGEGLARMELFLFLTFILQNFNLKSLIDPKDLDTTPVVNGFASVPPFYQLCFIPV
smiles,measurement,setting,value
"CCC1(c2ccccc2)C(=O)NC(=O)N(Cc2ccccc2)C1=O (single isomer, unassigned; (-)) [(-)-N-3-benzyl-phenobarbital]",IC50,[1],148 nM
O=c1cc(-c2ccc(O)c(-c3c(O)cc(O)c4c(=O)cc(-c5ccc(O)cc5)oc34)c2)oc2cc(O)cc(O)c12 [Amentoflavone],IC50,[2],5570 nM
same,IC50,[3],46.1 nM
COC(=O)N[C@H](C(=O)N[C@@H](Cc1ccccc1)[C@@H](O)CN(Cc1ccc(-c2ccccn2)cc1)NC(=O)[C@@H](NC(=O)OC)C(C)(C)C)C(C)(C)C [Atazanavir],IC50,[4],110 nM
C[C@H](CCC(=O)O)[C@H]1CC[C@H]2[C@@H]3[C@H](O)C[C@@H]4C[C@H](O)CC[C@]4(C)[C@H]3CC[C@]12C [Chenodeoxycholic acid],"remaining at 1 h, 2 µM",[5],59.4%
OC(Cn1cncn1)(Cn1cncn1)c1ccc(F)cc1F [Fluconazole],IC50,[6],712000 nM
Cc1nc2c([nH]1)c(=O)n(C)c(=O)n2Cc1ccco1 [Furafylline],IC50,[7],4760 nM
C[C@@H]1CC[C@@]2(OC1)O[C@H]1C[C@H]3[C@@H]4CC[C@H]5C[C@@H](O)CC[C@]5(C)[C@H]4CC(=O)[C@]3(C)[C@H]1[C@@H]2C [Hecogenin],IC50,[8],960 nM
Cc1ncc2n1-c1ccc(Cl)cc1C(c1ccccc1F)=NC2 [Midazolam],"remaining at 1 h, 1 µM",[9],4.02%
same,remaining at 1 h,[10],0%
O=C(O)c1cccnc1Nc1cccc(C(F)(F)F)c1 [Niflumic acid],IC50,[11],150 nM
COc1ccc2[nH]c([S+]([O-])Cc3ncc(C)c(OC)c3C)nc2c1 (stereo not drawn) [Omeprazole],"fold induction at 72 h, 303 nM","[12]; donor HU2036, probe phenacetin (100 µM)",14 ± 2.43
same,"fold induction at 72 h, 303 nM","[12]; donor HU2068, probe phenacetin (100 µM)",35.5 ± 2.03
same,"fold induction at 72 h, 303 nM","[12]; donor HU8373, probe phenacetin (100 µM)",32.7 ± 6.67
CCC1(c2ccccc2)C(=O)NC(=O)NC1=O [Phenobarbital],"fold induction at 72 h, 303 nM","[13]; donor HU2036, over negative control",7.63 ± 0.82
same,"fold induction at 72 h, 303 nM","[13]; donor HU2068, over negative control",6.43 ± 1.02
same,"fold induction at 72 h, 303 nM","[13]; donor HU8373, over negative control",10.7 ± 0.61
CCc1c2c(nc3ccc(O)cc13)-c1cc3c(c(=O)n1C2)COC(=O)[C@]3(O)CC [SN38],Known Substrate (% Remaining at 60 min),[14],SN38 (74.87) %
